Values of other authors, collected in patent US7276500B2, “Substituted amides, their preparation and use” (Abbott GmbH & Co. KG, priority 1998, dated 2007).

What was measured:
cell membranes = conditions: literature statement
calpain = conditions: literature statement
[1] = system: calpain (cleavage of pp60src in platelets); conditions: Oda et al., J. Biol. Chem. 1993

Compound | crossing of cell membranes (cell membranes) | effect on cells (cell membranes) | calpain inhibition (calpain) | cleavage of pp60src after activation of platelets [1]
CC(C)C[C@H](NC(=O)[C@H]1O[C@@H]1C(=O)O)C(=O)NCCCCN=C(N)N [E 64] | cross cell membranes only poorly | only a poor effect on cells | good calpain inhibitors | 
CCCC[C@@H](C=O)NC(=O)[C@H](CC(C)C)NC(=O)OCc1ccccc1 [calpeptin] |  |  |  | can be prevented
CC(=O)N[C@@H](CC(C)C)C(=O)N[C@@H](CC(C)C)C(=O)N[C@H](C=O)CCCNC(=N)N [leupeptin] | cross cell membranes only poorly | only a poor effect on cells | good calpain inhibitors | 
Ph—CONH—CH(CH2Ph)—CO—COCOOCH3 |  |  | only a weak calpain inhibitor | 
